Assay results reported in patent publication US9315602B2, “Method for producing olefin polymer” (Mitsui Chemicals, Inc., priority 2012, dated 2016).

Assays:
[1] = Solubility of bridged metallocene compound in n-hexane at 25° C.; settings: nitrogen atmosphere, 10 mg of catalyst
[2] = Propylene polymerization with catalyst solution (polymerization activity)
Method: An autoclave made of SUS and having an inner volume of 15 mL was thoroughly purged with nitrogen, and 0.4 mL (0.05 M, 20 μmol) of triisobutylaluminum and 2.7 mL of a solvent which served as a polymerization solvent and in which cyclohexane and hexane had been mixed with each other at a mixing ratio of cyclohexane:hexane=9:1 (volume ratio) were put into the autoclave. The content was stirred at 600-times rotation per minute. […]
Under a nitrogen atmosphere, 2.5 mg (molecular weight: 835.07 g/mol) of the catalyst (a) which served as a bridged metallocene compound was put into a Schlenk flask and dissolved in 5.5 mL of hexane. Then, 0.36 mL of a suspension of modified methylaluminoxane (n-hexane solvent, 4.15 M and 1.49 mmol on an aluminum atom basis) was added thereto at room temperature under stirring to prepare a catalyst solution in which the concentration of the catalyst (a) was 0.00051 M.
The catalyst solution was held at room temperature under a nitrogen atmosphere for 30 minutes, 0.2 mL (0.00051 M, 0.10 μmol) of the catalyst solution and 0.7 mL of a solvent which served as a polymerization solvent and in which cyclohexane and hexane had been mixed with each other at a mixing ratio of cyclohexane:hexane=9:1 (volume ratio) were subsequently put into the autoclave, and then the temperature was increased to 65° C. to initiate polymerization. […]

Row | Compound | solubility determined from the amount of n-hexane necessary for the dissolution [1] | polymerization activity ([2]; Example 1: propylene 7 bar, 9 minutes, catalyst solution 0.00051 M held 30 minutes, modified methylaluminoxane) [kg-PP/mmol-Zr·hr] | polymerization activity ([2]; Comparative Example 1: propylene 7 bar, 10 minutes, supernatant catalyst solution held 30 minutes, assuming catalyst concentration 0.00050 M) [kg-PP/mmol-Zr·hr]
1 | CC(C)(C)c1cc2c3cc(C(C)(C)C)c(-c4ccccc4)cc3[c-](C(Cc3ccccc3)(Cc3ccccc3)[c-]3cccc3)c2cc1-c1ccccc1.[Cl-].[Cl-].[Zr+4] [catalyst (h), Dibenzylmethylene(cyclopentadienyl)(2,7-diphenyl-3,6-di-tert-butylfluorenyl)zirconium Dichloride, reference compound] | not more than 0.278 mmol/L |  | 
2 | Benzyl(p-chlorophenyl)methylene(cyclopentadienyl)(2,7-di-p-chlorophenyl-3,6-di-tert-butylfluorenyl)zirconium Dichloride [catalyst (d)] | 901 µM |  | 
3 | Benzyl(p-chlorophenyl)methylene(cyclopentadienyl)(2,7-diphenyl-3,6-di-tert-butylfluorenyl)zirconium Dichloride [catalyst (c)] | 1585 µM |  | 
4 | Benzyl(phenyl)methylene(cyclopentadienyl)(2,7-di-p-chlorophenyl-3,6-di tert-butylfluorenyl)zirconium Dichloride [catalyst (b)] | 4098 µM |  | 
5 | Benzyl(phenyl)methylene(cyclopentadienyl)(2,7-diphenyl-3,6-di-tert-butylfluorenyl)zirconium Dichloride [catalyst (a)] | 1005 µM | 39.90 | 
6 | Diphenylmethylene(cyclopentadienyl)(2,7-diphenyl-3,6-di-tert-butylfluorenyl)zirconium Dichloride [catalyst (g), reference compound] | not more than 0.211 mmol/L |  | 3.00
7 | Methyl(p-tolyl)methylene(cyclopentadienyl)(2,7-diphenyl-3,6-di-tert-butylfluorenyl)zirconium Dichloride [catalyst (e)] | 6221 µM |  | 
8 | n-octyl(phenyl)methylene(cyclopentadienyl)(2,7-diphenyl-3,6-di-tert-butylfluorenyl)zirconium Dichloride [catalyst (f)] | 7683 µM |  | 
